Where two headings read alike, the source gives them in different places.
Columns and labels:
[1] = Dynamic light scattering (DLS) of mRNA/peptoid formulations: particle size and polydispersity; format: physicochemical; settings: Fluc mRNA/peptoid formulation; for Size PDI: size polydispersity index by DLS, 5:1 mass ratio; for Size (nm): volume average particle size/diameter by DLS, 5:1 mass ratio peptoid:cargo
Method: (§1) To prepare nanoparticle formulations, the amino lipidated peptoid is mixed by pipetting with nucleic acid at a mass ratio between approximately 1:1 (peptoid:cargo) and 20:1. Prior to formulation, amino lipidated peptoid and nucleic acid cargo were diluted in ethanol and acidic buffer (PBS adjusted to pH 5.5 with 0.1 M HCl) respectively to a volume ratio of 1:3 and to target a final cargo concentration of approximately 0.05 mg/mL to 0.2 mg/mL. The exemplary amino lipidated cationic peptoids described in Example 2 were combined with firefly luciferase (Fluc) mRNA to form nanoparticle compositions to be evaluated for therapeutic and/or prophylactic purposes in vitro or in vivo. The formulations were prepared according to the protocol of Example 3 and mixed by simple pipetting. The mRNA/peptoid formulation at a 5:1 mass ratio of peptoid:cargo were evaluated by dynamic light scattering (DLS) in order to determine the volume average particle size/diameter (nm) of the mRNA/peptoid complex and the size polydispersity index (PDI) within the formulation. The percentage of mRNA encapsulation for each formulation of the exemplary compounds were determined by fluorescence of the Qubit RNA HS (Invitrogen) dye before and after lysis of particles by Triton X-100.

[2] = mRNA encapsulation by fluorescence of Qubit RNA HS dye before and after lysis with Triton X-100; format: physicochemical; settings: percentage of mRNA encapsulation; Fluc mRNA/peptoid formulation, 5:1 mass ratio
Method: as §1, with “The” for “To prepare nanoparticle formulations, the amino lipidated peptoid is mixed by pipetting with nucleic acid at a mass ratio between approximately 1:1 (peptoid:cargo) and 20:1. Prior to formulation, amino lipidated peptoid and nucleic acid cargo were diluted in ethanol and acidic buffer (PBS adjusted to pH 5.5 with 0.1 M HCl) respectively to a volume ratio of 1:3 and to target a final cargo concentration of approximately 0.05 mg/mL to 0.2 mg/mL. The”

[3] = tested on: HeLa cells; assay: In vitro expression of firefly luciferase (Fluc) after treatment with Fluc mRNA/amino lipidated peptoid formulations, no PEG or 2% DMG-PEG2000; format: cell-based
Method: The efficacy of mRNA/amino lipidated peptoid formulations was evaluated in vitro based on their ability to deliver the firefly luciferase (Fluc) reporter gene to cultured cells. Amino lipidated peptoids were combined with Fluc mRNA at a 5:1 w/w ratio, and the resulting particles were added to cultured HeLa cells at a dose of 100 ng/well (in 100 μL total volume). The resulting luciferase expression (RLU) was measured by a luminescence plate reader after 6 hours and 24 hours of treatment. […] In addition to evaluating nanoparticle complexes formed between mRNA cargos and amino lipidated peptoids alone, multicomponent formulations containing a small amount of PEG-lipid DMG-PEG2000 were also tested for in vitro Fluc mRNA delivery. In these formulations, DMG-PEG2000 was pre-mixed with candidate peptoid at an overall 2% incorporation (w/w), while maintaining the same 5:1 mass ratio of peptoid:mRNA used previously.

[4] = tested on: HeLa cells; assay: In vitro Fluc expression with variable peptoid:mRNA mass ratio, 2% DMG-PEG2000; format: cell-based; settings: 24 h; for Observed Luciferase Expression (RLU) for Given Formulation Mass Ratio 2:1: 2% (w/w) DMG-PEG2000, peptoid:mRNA 2:1; for Observed Luciferase Expression (RLU) for Given Formulation Mass Ratio 3.5:1: 2% (w/w) DMG-PEG2000, peptoid:mRNA 3.5:1; for Observed Luciferase Expression (RLU) for Given Formulation Mass Ratio 5:1: 2% (w/w) DMG-PEG2000, peptoid:mRNA 5:1; for Observed Luciferase Expression (RLU) for Given Formulation Mass Ratio 7.5:1: 2% (w/w) DMG-PEG2000, peptoid:mRNA 7.5:1
Method: The charge ratio dependence of amino lipidated peptoid delivery vehicles was evaluated by formulating particles between Fluc mRNA and delivery vehicles at varying mass ratios. Formulations were varied between 2:1 and 7.5:1 peptoid:mRNA (w/w) ratios (2:1, 3.5:1, 5:1 and 7.5:1). In addition, the role of DMG-PEG2000 was also explored with the mass ratios, either by excluding DMG-PEG2000 or incorporating DMG-PEG2000 at 2% (w/w) relative to amino lipidated peptoid. Fluc expression from these formulations was measured in HeLa cells following treatment for 24 hours. […] FIGS. 6B and 6C show plots of the average bioluminescence (RLU) for HeLa cells treated with the formulations of exemplary amino lipidated cationic peptoid compounds 1-36, all formulated with 2% w/w DMG-PEG2000.

[5] = MTT viability assay after treatment with Fluc mRNA/amino lipidated peptoid formulations; format: cell-based; settings: human, HeLa cells
Method: Cellular viability was measured following treatment with Fluc mRNA/amino lipidated peptoid formulations by a traditional MTT viability assay. […] In this assay, cells were first treated with peptoid formulations at a final mRNA concentration of 100 ng/well for 8 hours. Cells were then left to grow for 48 hours, after which time they were exposed to 1.5 mg/mL 3-(4,5-dimethylthiazol-2-yl)-2,5-diphenyltetrazolium bromide (MTT) for 2 hours, then lysed using a solubilizing solution of 10% Triton-X 100 in acidic isopropanol (0.1N HCl). The signal corresponding to reduced formazan was normalized to untreated cells to provide a relative viability of each treated condition. […] In general, nearly all conditions maintained at least 80% viability with the only exceptions being formulations of compound 5, 34, and 35.

[6] = no PEG, peptoid:Fluc mRNA 5:1 w/w, 100 ng/well, 6 h of treatment
[7] = no PEG, peptoid:Fluc mRNA 5:1 w/w, 100 ng/well, 24 h of treatment
[8] = with 2% (w/w) DMG-PEG2000, peptoid:mRNA 5:1, 6 h after treatment
[9] = with 2% (w/w) DMG-PEG2000, peptoid:mRNA 5:1, 24 h after treatment
[10] = MTT, 2% (w/w) DMG-PEG2000, 5:1 mass ratio, 100 ng/well mRNA for 8 h then 48 h growth, normalized to untreated cells, read-out: Relative Viability (%) 2% PEG
[11] = MTT, formulation alone (no PEG), 5:1 mass ratio, 100 ng/well mRNA for 8 h then 48 h growth, normalized to untreated cells, read-out: Relative Viability (%) No PEG

CCCCCCCCCCCCCCCCCCN(CC(N)=O)C(=O)CN(CCCCCCCCCCCCCCCCCC)C(=O)CN(CCc1ccccc1)C(=O)CN(CCc1ccccc1)C(=O)CN(CCN)C(=O)CN(CCc1ccccc1)C(=O)CN(CCc1ccccc1)C(=O)CN(CCN)C(=O)CN(CCc1ccccc1)C(=O)CN(CCc1ccccc1)C(=O)CNCCN [Compound 5]
Size PDI [1]: 0.308
Size (nm) [1]: 364.7 nm
% Encapsulation [2]: 88.3%
Luciferase Expression (RLU) 6 h [3, 6]: 9.60E+01 RLU
Luciferase Expression (RLU) 24 h [3, 7]: 5.36E+02 RLU
Luciferase Expression (RLU) 6 h [3, 8]: 3.46E+02 RLU
Luciferase Expression (RLU) 24 h [3, 9]: 1.22E+02 RLU
Observed Luciferase Expression (RLU) for Given Formulation Mass Ratio 2:1 [4]: 5.81E+02 RLU
Observed Luciferase Expression (RLU) for Given Formulation Mass Ratio 3.5:1 [4]: 1.15E+03 RLU
Observed Luciferase Expression (RLU) for Given Formulation Mass Ratio 5:1 [4]: 9.21E+02 RLU
Observed Luciferase Expression (RLU) for Given Formulation Mass Ratio 7.5:1 [4]: 1.14E+03 RLU
viability at 8 h, 500 ng/well ([5]; Relative Viability (%) 2% PEG): 91.2%
viability at 8 h, 500 ng/well ([5]; Relative Viability (%) No PEG): 56.8%
viability at 8 h, 500 ng/well ([5]; viability): < 80%

CCCCCCCCCCN(CC(N)=O)C(=O)CN(CCc1ccccc1)C(=O)CN(CCc1ccccc1)C(=O)CN(CCN)C(=O)CN(CCc1ccccc1)C(=O)CN(CCc1ccccc1)C(=O)CN(CCN)C(=O)CN(CCc1ccccc1)C(=O)CN(CCc1ccccc1)C(=O)CNCCN [Compound 6]
Size PDI [1]: 0.348
Size (nm) [1]: 448.6 nm
% Encapsulation [2]: 92.4%
Luciferase Expression (RLU) 6 h [3, 6]: 4.30E+01 RLU
Luciferase Expression (RLU) 24 h [3, 7]: 3.60E+01 RLU
Luciferase Expression (RLU) 6 h [3, 8]: 1.38E+02 RLU
Luciferase Expression (RLU) 24 h [3, 9]: 2.13E+01 RLU
Observed Luciferase Expression (RLU) for Given Formulation Mass Ratio 2:1 [4]: 8.18E+01 RLU
Observed Luciferase Expression (RLU) for Given Formulation Mass Ratio 3.5:1 [4]: 8.18E+01 RLU
Observed Luciferase Expression (RLU) for Given Formulation Mass Ratio 5:1 [4]: 6.97E+01 RLU
Observed Luciferase Expression (RLU) for Given Formulation Mass Ratio 7.5:1 [4]: 4.56E+01 RLU
viability at 8 h, 500 ng/well [5, 10]: 88.9%
viability at 8 h, 500 ng/well [5, 11]: 88%

CCCCCCCCCCN(CC(N)=O)C(=O)CN(CCCCCCCCCC)C(=O)CN(CCCCCCCCCC)C(=O)CN(CCc1ccccc1)C(=O)CN(CCc1ccccc1)C(=O)CN(CCN)C(=O)CN(CCc1ccccc1)C(=O)CN(CCc1ccccc1)C(=O)CN(CCN)C(=O)CN(CCc1ccccc1)C(=O)CN(CCc1ccccc1)C(=O)CNCCN [Compound 7]
Size PDI [1]: 0.177
Size (nm) [1]: 296.7 nm
% Encapsulation [2]: 88.4%
Luciferase Expression (RLU) 6 h [3, 6]: 6.45E+03 RLU
Luciferase Expression (RLU) 24 h [3, 7]: 9.71E+03 RLU
Luciferase Expression (RLU) 6 h [3, 8]: 2.77E+03 RLU
Luciferase Expression (RLU) 24 h [3, 9]: 1.81E+03 RLU
Observed Luciferase Expression (RLU) for Given Formulation Mass Ratio 2:1 [4]: 1.61E+04 RLU
Observed Luciferase Expression (RLU) for Given Formulation Mass Ratio 3.5:1 [4]: 1.43E+04 RLU
Observed Luciferase Expression (RLU) for Given Formulation Mass Ratio 5:1 [4]: 2.20E+04 RLU
Observed Luciferase Expression (RLU) for Given Formulation Mass Ratio 7.5:1 [4]: 5.92E+03 RLU
viability at 8 h, 500 ng/well [5, 10]: 96%
viability at 8 h, 500 ng/well [5, 11]: 78%

— patent publication US20220323594A1, “LIPIDATED CATIONIC PEPTIDE-PEG COMPOSITIONS FOR NUCLEIC ACID DELIVERY” (NUTCRACKER THERAPEUTICS, INC., priority 2019, published 2022)
